Results reported in patent publication US6562833B1 (priority 1998, dated 2003).

Key:
Assay type in all cases: in vivo
Puccinia recondita = assay: Comparative Experiment 2 - curative activity against Puccinia recondita on wheat (wheat leaf rust); settings: potted wheat seedlings c.v. Kanzler, aqueous 250 ppm preparation sprayed the day after inoculation, assessed after 7 days, untreated plants 100% infected
From the text: (§1) The active ingredients were formulated separately or jointly as a 10% emulsion in a mixture of 70% by weight of cyclohexanone, 20% by weight of Nekanil® LN (Lutensol® AP6, wetting agent having emulsifying and dispersant action based on ethoxylated alkylphenols) and 10% by weight of Wettol® EM (nonionic emulsifier based on ethoxylated castor oil) and diluted with water to give the desired concentration.
Leaves of potted wheat seedlings c.v. “Kanzler” were dusted with spores of wheat leaf rust (Puccinia recondita). Thereafter, the pots were kept in a chamber of high atmospheric humidity (90 to 95%), at 20 to 22° C. for 24 hours. During this time, the spores germinated and the germ tubes penetrated into the leaf tissue. The next day, the infected plants were sprayed to runoff point with an aqueous 250 ppm preparation of active compound which had been made up from a stock solution consisting of 10% of active compound, 63% of cyclohexanone and 27% of emulsifier. After the spraycoating had dried on, the test plants were cultivated in a greenhouse at 20-22° C. and 65-70% relative atmospheric humidity for 7 days. The extent of the rust fungus development on the leaves was then determined.

Plasmopara viticola [1] = assay: Comparative Experiment 1 - activity against Plasmopara viticola on grapevine leaves (persistency, 500 ppm); settings: potted grapevines c.v. Müller-Thurgau; aqueous 500 ppm preparation sprayed to runoff; inoculated 7 days after treatment; untreated plants 85% infected
From the text: as §1
Leaves of potted grapevines c.v. “Müller-Thurgau” were sprayed to runoff point with an aqueous 500 ppm preparation of active compound which had been made up from a stock solution comprising 10% of active compound, 63% of cyclohexanone and 27% of emulsifier. To assess the persistency of the substances, the plants were kept for 7 days in a greenhouse after the spray-coating had dried off. Only then were the leaves inoculated with an aqueous zoospore suspension of Plasmopara viticola. The grapevines were then initially kept in a water vapor-saturated chamber at 24° C. for 48 hours and then in a greenhouse at 20-30° C. for 5 days. After this period of time, the plants were once more kept in a humid chamber for 16 hours to promote sporangiophore eruption. The extent of the infection on the undersides of the leaves was then determined visually.

Plasmopara viticola [2] = assay: Comparative Experiment 4 - activity against Plasmopara viticola on grapevine leaves (persistency, 250 ppm); settings: potted grapevines c.v. Müller-Thurgau; aqueous 250 ppm preparation sprayed to runoff; inoculated 7 days after treatment; untreated plants 85% infected
From the text: as §1
Leaves of potted grapevines c.v. “Müller-Thurgau” were sprayed to runoff point with an aqueous 250 ppm preparation of active compound which had been made up from a stock solution comprising 10% of active compound, 63% of cyclohexanone and 27% of emulsifier. To assess the persistency of the substances, the plants were kept for 7 days in a greenhouse after the spray-coating had dried off. Only then were the leaves inoculated with an aqueous zoospore suspension of Plasmopara viticola. The grapevines were then initially kept in a water vapor-saturated chamber at 24° C. for 48 hours and then in a greenhouse at 20-30° C. for 5 days. After this period of time, the plants were once more kept in a humid chamber for 16 hours to promote sporangiophore eruption. The extent of the infection on the undersides of the leaves was then determined visually.

Pyricularia oryzae = settings: potted rice seedlings c.v. TaiNong 67; protective, aqueous 250 ppm preparation; inoculated the next day; assessed after 6 days; untreated plants 90% infected

Compound | infection (extent of the rust fungus development on the leaves) (Puccinia recondita) [%] | infection (extent of the infection on the undersides of the leaves, determined visually) (Plasmopara viticola [1]) [%] | infection (extent of the infection on the undersides of the leaves, determined visually) (Plasmopara viticola [2]) [%] | infection (extent of the development of the disease on the leaves, determined visually) (Pyricularia oryzae) [%]
Cc1nc(Nc2ccccc2)nc(C#N)c1C [I.9, 4-Cyano-5,6-dimethyl-2-(phenylamino)pyrimidine] | 30 | 5 | – | –
CON=Cc1nc(Nc2ccccc2)nc(C)c1C [I.62, 5,6-Dimethyl-4-(N-methoxyimino)methyl-2-(N-phenylamino)pyrimidine] | – | – | 10 | –
CON=Cc1cc(C)nc(Nc2ccccc2)n1 [active compound C] | – | – | 60 | –
Cc1cc(C(F)(F)F)nc(Nc2ccccc2)n1 [active compound B] | – | – | – | 80
Cc1nc(Nc2ccccc2)nc(C(F)(F)F)c1C [I.18] | – | – | – | 15
Cc1cc(C#N)nc(Nc2ccccc2)n1 [active compound A] | 100 | 50 | – | –
